Reference: ChEMBL document CHEMBL1126000, “Synthesis of 2-substituted-1,3,4-thiadiazole-5-sulphonamides as novel water-soluble inhibitors of carbonic anhydrase” (Bioorg Med Chem Lett, 1991)
In brackets after ≈: the same amount, converted by molar mass. Several values for one entry are separate records, joined by “and”; a condition that tells them apart may be missing. Equal entries are not always repeated.

System: not listed separately
Experiment: Solubility in water, at 20 degrees Centigrade.
Assay type: physicochemical
Conditions: buffer

| SMILES | solubility [mM] |
| --- | --- |
| NCCCCC(=O)Nc1nnc(S(N)(=O)=O)s1 | 0.7 (≈ 196 µg/mL) |

Same assay, conditions: water; read-out: Solubility

| SMILES | solubility [mM] |
| --- | --- |
| C[C@H](NC(=O)OCc1ccccc1)C(=O)Nc1nnc(S(N)(=O)=O)s1 | < 0.1 |
| CC(C)COC(=O)Nc1nnc(S(N)(=O)=O)s1 | 103 (≈ 28900 µg/mL) |
| NS(=O)(=O)c1nnc(NC(=O)[C@H](Cc2ccccc2)NC(=O)OCc2ccccc2)s1 | < 0.1 |
| Br.NCC(=O)Nc1nnc(S(N)(=O)=O)s1 | 896 |
| Br.N[C@@H](Cc1ccccc1)C(=O)Nc1nnc(S(N)(=O)=O)s1 | 132 |
| NS(=O)(=O)c1nnc(NC(=O)CNC(=O)OCc2ccccc2)s1 | < 0.1 |
| Br.C[C@H](N)C(=O)Nc1nnc(S(N)(=O)=O)s1 | 701 |
| CC(=O)Nc1nnc(S(N)(=O)=O)s1 [ACETAZOLAMIDE] | < 0.1 |

Biological target: Carbonic anhydrase (Bos taurus, UniProt P00921+Q95323+P18915+Q3SZX4)
Conditions: not given

| SMILES | IC50 |
| --- | --- |
| C[C@H](NC(=O)OCc1ccccc1)C(=O)Nc1nnc(S(N)(=O)=O)s1 | 7 nM |
| CC(C)COC(=O)Nc1nnc(S(N)(=O)=O)s1 | 550 nM and 570 nM |
| NS(=O)(=O)c1nnc(NC(=O)[C@H](Cc2ccccc2)NC(=O)OCc2ccccc2)s1 | 5 nM |
| Br.N[C@@H](Cc1ccccc1)C(=O)Nc1nnc(S(N)(=O)=O)s1 | 30 nM |
| NS(=O)(=O)c1nnc(NC(=O)CNC(=O)OCc2ccccc2)s1 | 8 nM |
| Br.C[C@H](N)C(=O)Nc1nnc(S(N)(=O)=O)s1 | 9 nM |
| NCCCCC(=O)Nc1nnc(S(N)(=O)=O)s1 | 440 nM and 370 nM |
